Results: US5922697A, “Compounds, compositions and methods for inhibiting the binding of proteins containing an SH2 domain to cognate phosphorylated proteins” (Warner-Lambert Company, priority 1998, dated 1999)
Like-named read-outs stand apart in the source and are kept apart here.

Key:
[1] = biological target: T1, p85(C) SH2-GST binding to PDGF receptor kinase domain (Homo sapiens, UniProt P27986); experiment: Inhibition of activated PDGF receptor binding to 35S-SH2 domains: p85(C) SH2-GST; settings: 35S-p85(C) SH2-GST, immobilized PDGF receptor kinase domain, pH 7.5, room temperature, 30 minutes
T1 construct: S-X-SH2-GST (X=Src, Ab1, Grb2, p85-N, p85-C, Syp-N, and PLCy-C domains)
T1 sequence (P27986 624-718 limits assumed): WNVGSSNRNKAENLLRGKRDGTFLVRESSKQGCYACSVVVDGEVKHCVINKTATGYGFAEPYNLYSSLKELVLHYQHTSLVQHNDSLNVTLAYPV
Method: (§1) Inhibition of Activated PDGF Receptor Binding to ^35 S-SH2 Domains
(§2) The assay was conducted at room temperature for 30 minutes while continuously inverting the plate. The resultant SH2-GST-PDGF receptor kinase complex was separated from excess ^35 S-SH2-GST protein by vacuum filtration and the amount of bound SH2-GST was determined by scintillation counting.

[2] = biological target: T2, Syp(N) SH2-GST binding to PDGF receptor kinase domain (Homo sapiens, UniProt Q06124); experiment: Inhibition of activated PDGF receptor binding to 35S-SH2 domains: Syp(N) SH2-GST; settings: 35S-Syp(N) SH2-GST, immobilized PDGF receptor kinase domain, pH 7.5, room temperature, 30 minutes
T2 construct: S-X-SH2-GST (X=Src, Ab1, Grb2, p85-N, p85-C, Syp-N, and PLCy-C domains)
T2 sequence (Q06124 6-102): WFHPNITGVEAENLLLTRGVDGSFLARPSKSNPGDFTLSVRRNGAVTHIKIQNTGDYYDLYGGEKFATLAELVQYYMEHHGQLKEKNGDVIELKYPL
Method: as §1, §2

[3] = biological target: T3, Grb2 SH2-GST binding to PDGF receptor kinase domain (Homo sapiens, UniProt P62993); experiment: Inhibition of activated PDGF receptor binding to 35S-SH2 domains: Grb2 SH2-GST; settings: 35S-Grb2 SH2-GST, immobilized PDGF receptor kinase domain, pH 7.5, room temperature, 30 minutes
T3 construct: S-X-SH2-GST (X=Src, Ab1, Grb2, p85-N, p85-C, Syp-N, and PLCy-C domains)
T3 sequence (P62993 60-152 limits assumed): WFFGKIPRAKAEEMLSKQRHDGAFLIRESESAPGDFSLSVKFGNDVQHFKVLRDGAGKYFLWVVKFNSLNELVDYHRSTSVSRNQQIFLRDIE
Method: as §1, §2

[4] = biological target: T4, PLCγ(C) SH2-GST binding to PDGF receptor kinase domain (Homo sapiens, UniProt P19174); experiment: Inhibition of activated PDGF receptor binding to 35S-SH2 domains: PLCγ(C) SH2-GST; settings: 35S-PLCγ(C) SH2-GST, immobilized PDGF receptor kinase domain, pH 7.5, room temperature, 30 minutes
T4 construct: S-X-SH2-GST (X=Src, Ab1, Grb2, p85-N, p85-C, Syp-N, and PLCy-C domains)
T4 sequence (P19174 668-756 limits assumed): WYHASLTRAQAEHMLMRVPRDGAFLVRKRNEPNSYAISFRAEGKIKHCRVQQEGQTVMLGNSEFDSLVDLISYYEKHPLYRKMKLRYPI
Method: as §1, §2

[5] = system: Swiss 3T3 cells; experiment: Inhibition of DNA synthesis as monitored by 3H-thymidine uptake; format: cell-based; settings: Swiss 3T3 cells stimulated with growth factor (PDGFbb or Fetal Bovine Serum), 24 hours; compound concentration not given
Method: Inhibition of DNA Synthesis as Monitored by ^3 H-Thymidine Uptake
DNA synthesis occurs when a cell is exposed to Platelet Derived Growth Factor (PDGF). For PDGF-induced DNA synthesis to occur, c-SRC or another member of the SRC gene family is required. The ability of the SRC SH2 inhibitors of the present invention to block PDGF-stimulated DNA synthesis can be assessed using the protocol set forth below.
Swiss 3T3 cells were grown in 12-well plates for 3 days to approximately 50% confluency. The growth media was removed and replaced with 1.0 mL/well of assay buffer (Dulbecco's Modified Eagle Medium containing 0.2% Bovine Serum Albumin), and incubated for 24 hours to arrest growth.
Test compounds (5 μL) were add at 100 times their final concentration. Methyl sulfoxide was used as a control and levels in all wells kept under 1.0% of DMSO. Cells were then stimulated with growth factor (PDGFbb or Fetal Bovine Serum), and allowed to incubate another 24 hours.
During the final 2 hours of treatment, 5 uL of 0.1 μCi/μL ^3 H-thymidine was added to each well (final=0.5 μCi/well)
After incubation the medium was removed by aspiration, and each well was washed twice with ice-cold phosphate buffered saline (0.5 mL/wash). 0.5 mL ice-cold 5% trichloroacetic acid was added to each well and incubated on ice for a minimum 10 minutes. The trichloroacetic acid solution was removed and each well was washed twice with 0.5 mL ice-cold trichloroacetic acid, and then once with ice-cold water (0.5 mL). 0.5 mL of 2% Sodium Dodecyl Sulfate was added to each well to solubilize the cells and allowed to incubate at room temperature for 10-15 minutes. The solubilized cells were transfered to 20 mL scintillation vials. Each well was washed with 0.5 mL of water and combined with the corresponding scintillation vial. 10 mL of Ready-Gel scintillation cocktail was added to each vial and the vials were then counted in a scintillation counter. Results are shown as percent of ^3 H-thymidine uptake relative to control in Table 4 below.

[6] = biological target: T5, Src SH2 (Homo sapiens, UniProt P12931); experiment: Inhibition of 125I-phosphopeptide binding to immobilized Src SH2; settings: competitive 125I-phosphopeptide displacement, GST-Src SH2 fusion protein, pH 7.5, room temperature, 20 minutes
T5 construct: glutathione-S-transferase(GST)-Src SH2 fusion protein
T5 sequence (P12931 151-248 limits assumed): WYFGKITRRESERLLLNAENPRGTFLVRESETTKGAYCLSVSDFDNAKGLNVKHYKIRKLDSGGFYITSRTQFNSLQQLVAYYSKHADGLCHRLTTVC
Method: The binding affinities of compounds of the present invention to Src SH2 was determined using a competitive radiolabeled phosphopeptide displacement assay.
Binding was performed at room temperature for 20 minutes while continuously inverting the plate. […] Results are expressed as IC50 values in Table 1 below.

[7] = biological target: T6, Abl SH2 (Homo sapiens, UniProt P00519); experiment: Inhibition of 125I-phosphopeptide binding to immobilized Abl SH2; settings: competitive 125I-phosphopeptide displacement, GST-Abl SH2 fusion protein, pH 7.5, room temperature, 20 minutes
T6 construct: glutathione-S-transferase(GST)-Abl SH2 fusion protein
T6 sequence (P00519 127-217 limits assumed): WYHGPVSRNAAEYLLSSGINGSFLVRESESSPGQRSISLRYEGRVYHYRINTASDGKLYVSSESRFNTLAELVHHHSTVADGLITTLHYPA
Method: The binding affinities of compounds of the present invention to Abl SH2 was determined using a competitive radiolabeled phosphopeptide displacement assay. […] Binding was performed at room temperature for 20 minutes while continuously inverting the plate.

[8] = read-out: IC50, SRC SH2 Binding
[9] = read-out: IC50, Abl SH2 Binding

Structure (SMILES) | IC50 ([6]; IC50, SRC SH2 Binding) [µM] | IC50 ([7]; IC50, Abl SH2 Binding) [µM] | other results
CC(=O)N[C@@H](Cc1ccc(C(F)(F)P(=O)(O)O)cc1)C(=O)N[C@@H](CCC(=O)O)C(=O)N(C)CCCC1CCCCC1 [Example 5, [S-(R*,R*)]-4-{2-Acetylamino-3-[4-(difluoro-phosphonomethyl)-phenyl]-propionylamino}-4-[(3-cyclohexylpropyl)-methyl-carbamoyl]-butyric acid] | – | – | IC50 [1]: > 100 µM; IC50 [2]: > 100 µM; IC50 [3]: > 100 µM; IC50 [4]: > 100 µM
CC[C@H](NC(=O)[C@H](Cc1ccc(C(F)(F)P(=O)(O)OCOC(=O)C(C)(C)C)cc1)NC(C)=O)C(=O)N(C)CCCC1CCCCC1 [Example 55, [S-(R*,R*)]-2,2-Dimethyl-propionic acid {[4-(2-acetylamino-2-{1-[(3-cyclohexyl-propyl)-methyl-carbamoyl]-propylcarbamoyl}-ethyl)-phenyl]-difluoro-methyl}-hydroxy-phosphinoyloxymethyl ester] | – | – | 3H-Thymidine Uptake, % Uptake Relative to Control [5]: 61%; IC50 [6, 8]: > 100 µM; IC50 [7, 9]: > 100 µM
CC(=O)N[C@@H](Cc1ccc(C(F)(F)P(=O)(O)O)cc1)C(=O)NC(C)c1ccc(OCC2CCCCC2)c(C(N)=O)c1 (single isomer, unassigned) [Example 63a, [S-(R*,R*)]- or [S-(R*,S*)]-[(4-{2-Acetylamino-2-[1-(3-carbamoyl-4-cyclohexylmethoxy-phenyl)-ethylcarbamoyl]-ethyl]-phenyl)-difluoro-methyl]-phosphonic acid] | – | – | 3H-Thymidine Uptake, % Uptake Relative to Control [5]: 73%; IC50 [6, 8]: 0.3 µM; IC50 [7, 9]: 2 µM
CC(=O)N[C@@H](Cc1ccc(OP(=O)(O)O)cc1)C(=O)N[C@@H](CCC(=O)O)C(=O)N(C)CCCC1CCCCC1 [Example 1, [S-(R*,R*)]-4-[2-Acetylamino-3-(4-phosphonooxy-phenyl)-propionylamino]-4-[(3-cyclohexyl-propyl)-methylcarbamoyl]-butyric acid] | – | – | IC50 [1]: > 100 µM; IC50 [2]: > 100 µM; IC50 [3]: > 100 µM; IC50 [4]: > 100 µM
CC(=O)N[C@@H](Cc1ccc(C(F)(F)P(=O)(O)OCOC(=O)C(C)(C)C)cc1)C(=O)NC(C)c1ccc(OCC2CCCCC2)c(C(N)=O)c1 (single isomer, unassigned) [Example 77, [S-(R*,R*)]- or [S-(R*,S*)]-2,2-Dimethyl-propionic acid {[(4-{2-Acetylamino-2-[1-(3-carbamoyl-4-cyclohexylmethoxy-phenyl)-ethylcarbamoyl]-ethyl}-phenyl)-difluoro-methyl} hydroxy-phosphinoyloxymethyl ester] | – | – | 3H-Thymidine Uptake, % Uptake Relative to Control [5]: 34%
CC(=O)N[C@@H](Cc1ccc(OP(=O)(O)O)cc1)C(=O)NCc1ccc(OCC2CCCCC2)c(C(=O)NO)c1 [Example 70, (S)-Phosphoric acid mono-{4-[2-acetylamino-2-(4-cyclohexylmethoxy-3-hydroxycarbamoyl-benzylcarbamoyl)-ethyl]-phenyl} ester] | 24 | 16 | –
CC(=O)N[C@@H](Cc1ccc(OP(=O)(O)O)cc1)C(=O)N[C@H](C(=O)NCCCc1ccccc1)C(C)O (stereo partly drawn) [Example 58, [S-(R*,R*)]-Phosphoric acid mono-(4-{2-acetylamino-2-[2-hydroxy-1-(3-phenyl-propylcarbamoyl)-propylcarbamoyl]-ethyl}-phenyl) ester] | 21 | ~60 | –
CC(=O)N[C@@H](Cc1ccc(OP(=O)(O)O)cc1)C(=O)NC(C)c1ccc(OCc2cc(C)cc(C)c2)c(C(N)=O)c1 (mixture of isomers) [Example 68, Phosphoric acid mono-[4-((S)-2-acetylamino-2-{(RS)-1-[3-carbamoyl-4-(3,5-dimethyl-benzyloxy)-phenyl]-ethylcarbamoyl}-ethyl)-phenyl] ester] | 1.1 | 5.7 | –
CC(=O)N[C@@H](Cc1ccc(OP(=O)(O)O)cc1)C(=O)NC(C)c1ccc(OC(C)CC2CCCCC2)c(C(N)=O)c1 (single isomer, unassigned) [Example 64a, Phosphoric acid mono-[4-(2-acetylamino-2-{1-[3-carbamoyl-4-(2-cyclohexyl-1-methyl-ethoxy)-phenyl]-ethylcarbamoyl]-ethyl)-phenyl] ester] | 0.6 | 2.4 | –
CCc1ccccc1COc1ccc(CNC(=O)[C@H](Cc2ccc(OP(=O)(O)O)cc2)NC(C)=O)cc1C(N)=O [Example 72, (S)-Phosphoric acid mono-(4-{2-acetylamino-2-[3-carbamoyl-4-(2-ethyl-benzyloxy)-benzylcarbamoyl]-ethyl}-phenyl) ester] | 6.2 | 28 | –
CCCC(NC(=O)[C@H](Cc1ccc(OP(=O)(O)O)cc1)NC(C)=O)c1ccc(OCC2CCCCC2)c(C(N)=O)c1 (mixture of isomers) [Example 69, Phosphoric acid mono-(4-{(S)-2-acetylamino-2-[(RS)-1-(3-carbamoyl-4-cyclohexylmethoxy-phenyl)-butylcarbamoyl]-ethyl}-phenyl) ester] | 2.1 | 7.4 | –
CN(CCCC1CCCCC1)C(=O)[C@H](CCC(=O)O)NC(=O)[C@H](Cc1ccc(OP(=O)(O)O)cc1)NS(=O)(=O)N(C)C [Example 60, 5-[(3-cyclohexylpropyl)methylamino]-4-[[2-[[(dimethylamino)-sulfonyl]amino]-1-oxo-3-[4-(phosphonooxy)phenyl]propyl]amino]-5-oxo-pentanoic acid] | 1.9 | 9.7 | –
CC(=O)N[C@@H](Cc1ccc(OP(=O)(O)O)cc1)C(=O)NC(C)c1ccc(OCC2CCCCC2)c(CC(N)=O)c1 (mixture of isomers) [Example 65, (S)-Phosphoric acid mono-(4-{2-acetylamino-2-[(RS)-1-(3-carbamoylmethyl-4-cyclohexylmethoxy-phenyl)-ethylcarbamoyl]-ethyl}-phenyl) ester] | 9.2 | 24 | –
NC(=O)c1cc(CNC(=O)Nc2ccc(OP(=O)(O)O)cc2)ccc1OCC1CCCCC1 [Example 74, Phosphoric acid mono-{4-[3-(3-carbamoyl-4-cyclohexylmethoxy-benzyl)-ureido]-phenyl} ester] | 20 | > 100 | –
